Consider 29 compounds from ChEMBL document CHEMBL1641382, “New imidazoline/α(2)-adrenoceptors affecting compounds-4(5)-(2-aminoethyl)imidazoline (dihydrohistamine) derivatives. Synthesis and receptor affinity studies” (Bioorg Med Chem, 2011).

For test [1], the target named is Nischarin (Rattus norvegicus, UniProt Q4G017). In words: Inhibition of Sprague-Dawley rat imidazoline I1 receptor.
Test [2] concerns the target T1, Adrenergic receptor alpha-2 (Rattus norvegicus, UniProt P22086+P19328+P22909).
T1 sequence (P22086 whole entry): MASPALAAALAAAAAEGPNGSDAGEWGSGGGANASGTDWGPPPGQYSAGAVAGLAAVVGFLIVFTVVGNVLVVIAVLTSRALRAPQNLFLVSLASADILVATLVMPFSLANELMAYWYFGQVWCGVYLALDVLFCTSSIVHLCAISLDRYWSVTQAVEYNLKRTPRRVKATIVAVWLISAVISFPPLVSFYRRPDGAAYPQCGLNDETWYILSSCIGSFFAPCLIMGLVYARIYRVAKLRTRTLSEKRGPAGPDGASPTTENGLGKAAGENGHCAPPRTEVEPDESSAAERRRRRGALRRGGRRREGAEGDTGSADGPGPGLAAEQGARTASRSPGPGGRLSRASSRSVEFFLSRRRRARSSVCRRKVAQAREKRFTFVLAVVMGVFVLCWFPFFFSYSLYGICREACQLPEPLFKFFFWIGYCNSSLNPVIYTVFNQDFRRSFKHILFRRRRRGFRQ
T1 sequence (P19328 whole entry): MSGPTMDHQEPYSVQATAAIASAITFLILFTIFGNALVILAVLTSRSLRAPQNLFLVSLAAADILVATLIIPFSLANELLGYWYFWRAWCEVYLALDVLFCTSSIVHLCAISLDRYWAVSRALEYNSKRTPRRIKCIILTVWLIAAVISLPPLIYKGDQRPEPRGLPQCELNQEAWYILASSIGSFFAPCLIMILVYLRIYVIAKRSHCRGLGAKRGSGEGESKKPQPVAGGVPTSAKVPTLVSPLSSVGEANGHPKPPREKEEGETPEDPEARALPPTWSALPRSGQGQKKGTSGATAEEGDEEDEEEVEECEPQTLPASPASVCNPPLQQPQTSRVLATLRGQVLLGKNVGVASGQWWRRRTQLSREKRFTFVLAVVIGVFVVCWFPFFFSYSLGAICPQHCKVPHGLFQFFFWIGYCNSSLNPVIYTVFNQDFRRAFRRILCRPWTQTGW
T1 sequence (P22909 whole entry): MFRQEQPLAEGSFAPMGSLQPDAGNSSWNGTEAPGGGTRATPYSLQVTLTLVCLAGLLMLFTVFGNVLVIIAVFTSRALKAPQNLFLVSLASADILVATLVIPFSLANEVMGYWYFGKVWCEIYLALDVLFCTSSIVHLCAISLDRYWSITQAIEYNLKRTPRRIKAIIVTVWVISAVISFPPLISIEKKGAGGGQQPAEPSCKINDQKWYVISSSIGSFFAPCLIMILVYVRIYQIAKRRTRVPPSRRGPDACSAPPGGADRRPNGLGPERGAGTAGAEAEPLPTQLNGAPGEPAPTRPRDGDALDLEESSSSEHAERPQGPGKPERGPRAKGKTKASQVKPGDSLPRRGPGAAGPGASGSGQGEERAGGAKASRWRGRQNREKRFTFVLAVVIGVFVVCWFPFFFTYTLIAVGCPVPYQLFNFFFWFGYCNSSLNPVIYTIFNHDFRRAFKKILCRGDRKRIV
The experiment in a line: Inhibition of Sprague-Dawley rat alpha-2 adrenergic receptor.

Test [3] can be described thus: Inhibition of Sprague-Dawley rat imidazoline I2 receptor.
A short description of test [4]: Inhibition of Wistar rat imidazoline I2 receptor.

A value given as a limit tells only on which side of the number the result lay.

Sequence of Nischarin (Q4G017 whole entry): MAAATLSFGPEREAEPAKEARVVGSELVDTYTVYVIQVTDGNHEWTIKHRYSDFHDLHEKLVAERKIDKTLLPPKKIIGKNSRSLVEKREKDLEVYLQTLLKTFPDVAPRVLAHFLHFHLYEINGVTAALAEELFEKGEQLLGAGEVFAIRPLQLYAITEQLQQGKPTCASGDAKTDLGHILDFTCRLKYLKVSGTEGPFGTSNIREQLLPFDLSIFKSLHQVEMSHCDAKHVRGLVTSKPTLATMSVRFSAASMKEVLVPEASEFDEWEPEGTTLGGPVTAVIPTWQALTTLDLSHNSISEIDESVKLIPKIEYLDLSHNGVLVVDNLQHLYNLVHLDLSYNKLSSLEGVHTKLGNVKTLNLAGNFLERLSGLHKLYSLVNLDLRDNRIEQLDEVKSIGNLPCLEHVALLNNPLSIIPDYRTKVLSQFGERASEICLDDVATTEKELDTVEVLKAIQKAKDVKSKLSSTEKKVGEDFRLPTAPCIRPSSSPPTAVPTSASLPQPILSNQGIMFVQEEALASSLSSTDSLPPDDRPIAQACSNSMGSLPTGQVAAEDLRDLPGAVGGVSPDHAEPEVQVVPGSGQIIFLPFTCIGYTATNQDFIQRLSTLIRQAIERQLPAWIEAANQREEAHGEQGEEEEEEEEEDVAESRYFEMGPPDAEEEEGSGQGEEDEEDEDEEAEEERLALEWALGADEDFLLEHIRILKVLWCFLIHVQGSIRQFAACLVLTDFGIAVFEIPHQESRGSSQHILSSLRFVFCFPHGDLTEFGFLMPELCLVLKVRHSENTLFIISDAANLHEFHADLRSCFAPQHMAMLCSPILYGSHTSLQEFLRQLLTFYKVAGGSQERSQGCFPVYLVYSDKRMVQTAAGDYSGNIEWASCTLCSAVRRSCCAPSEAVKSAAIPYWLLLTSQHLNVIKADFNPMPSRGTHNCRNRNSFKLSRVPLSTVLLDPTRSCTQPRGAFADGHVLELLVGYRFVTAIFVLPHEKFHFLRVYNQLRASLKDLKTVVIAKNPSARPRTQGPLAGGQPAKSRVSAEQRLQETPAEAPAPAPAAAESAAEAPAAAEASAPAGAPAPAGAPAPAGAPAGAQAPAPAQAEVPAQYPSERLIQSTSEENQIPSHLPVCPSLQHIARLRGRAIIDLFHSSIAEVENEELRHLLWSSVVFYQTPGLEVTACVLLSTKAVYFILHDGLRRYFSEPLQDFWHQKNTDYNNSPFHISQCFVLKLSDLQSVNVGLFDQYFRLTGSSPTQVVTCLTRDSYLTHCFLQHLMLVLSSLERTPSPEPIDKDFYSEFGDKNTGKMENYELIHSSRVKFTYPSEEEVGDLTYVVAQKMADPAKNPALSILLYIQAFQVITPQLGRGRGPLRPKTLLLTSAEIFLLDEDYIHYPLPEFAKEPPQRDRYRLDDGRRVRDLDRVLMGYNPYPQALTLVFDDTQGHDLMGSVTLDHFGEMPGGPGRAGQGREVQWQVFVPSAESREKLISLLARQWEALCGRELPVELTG

One may read the IC50 as the midpoint of a concentration-inhibition curve. High values mean a need for much substance, low ones inhibition by little substance. What is called Ki is a dissociation constant, usually derived from enzyme kinetics or from competition with a known ligand. Lower therefore signals a stronger hold on the target. In test [1], `Br.NCC[C@H]1CNC(Nc2ccc(Cl)cc2Cl)=N1` yielded an IC50 of 1.48 µM. For the same compound, the values for the Ki in test [2] and in test [3] were 0.854 µM and 1.76 µM, respectively.

`NCCCCN=C(N)N` [AGMATINE] returned a Ki in test [4] of 417 µM.

Regarding `Br.NCC[C@H]1CNC(c2ccccc2F)=N1`, the IC50 in test [1] turned out to be 117 µM. Moreover, the Ki in test [2] was 178.6 µM; in test [3] it was 27.6 µM.

The compound `Br.NCC[C@H]1CNC(Nc2cccnc2)=N1` gave an IC50 in test [1] above 1000 µM. For the same compound, the Ki is 19.66 µM in test [2] and above 1000 µM in test [3].

Consider `Br.NCC[C@H]1CNC(Nc2c(F)cccc2F)=N1`, for which the IC50 in test [1] was determined as 93.1 µM. Further, the inhibition constant (Ki) in test [2] worked out at 13.06 µM; in test [3], 21.8 µM.

For `Br.NCC[C@@H]1CNC(C2COc3ccccc3O2)=N1` (stereo partly drawn), inhibition in test [1] was half-maximal at 2.65 µM (IC50). The Ki in test [2] came to 5.412 µM; in test [3], 9.61 µM.

The compound `Br.NCC[C@H]1CNC(Cc2cccc3ccccc23)=N1` displayed an IC50 in test [1] above 100 µM. The results for the Ki in test [2] and in test [3] were 0.964 µM and 1 µM, respectively.

Turning to `Br.NCC[C@H]1CNC(c2ccccc2)=N1`, inhibition in test [1] was half-maximal at 72.9 µM (IC50). Moreover, the values for the Ki in test [2] and in test [3] were 43.07 µM and 3.56 µM, respectively.

`Br.NCC[C@H]1CNC(/C=C/c2ccccc2)=N1` came in with an IC50 in test [1] of 17.2 µM. Moreover, the Ki is 3.896 µM in test [2] and 11.2 µM in test [3].

In test [1], `Br.NCC[C@H]1CNC(Nc2cccc(Cl)c2)=N1` registered an IC50 of 33.9 µM. Further, the Ki in test [2] is 7.018 µM; in test [3], 20.3 µM.

In test [1], `Br.NCC[C@@H]1CNC(Nc2ccc(Cl)cc2Cl)=N1` showed an IC50 of 6.33 µM. For the same compound, the figures for the Ki in test [2] and in test [3] were 16.92 µM and 92.5 µM, respectively.

On to `Br.NCC[C@@H]1CNC(Cc2cccc3ccccc23)=N1`, for which half-maximal inhibition in test [1] (IC50) was put at 583 µM. The Ki in test [2] came out at 83.77 µM; in test [3] it was 46.3 µM.

For `Br.CCC1(C2=N[C@H](CCN)CN2)Cc2ccccc2O1` (stereo partly drawn), the IC50 in test [1] was 32.5 µM. The Ki in test [2] turned out to be 0.869 µM; in test [3] it was 18.9 µM.

The compound `Br.NCC[C@H]1CNC(CN(Cc2ccccc2)c2ccccc2)=N1` had an IC50 in test [1] of 11.6 µM. Further, the Ki in test [2] was 481.8 µM; in test [3] it was 19.1 µM.

The compound `Br.NCC[C@@H]1CNC(Nc2cccc(C(F)(F)F)c2)=N1` returned an IC50 in test [1] of 1.25 µM. Moreover, the results for the Ki in test [2] and in test [3] were 26.69 µM and 47.7 µM, respectively.

In the case of `Br.NCC[C@H]1CNC(Nc2c(Cl)cccc2Cl)=N1`, the IC50 in test [1] was found to be 7.75 µM. Also, the results for the Ki in test [2] and in test [3] were 1.899 µM and 2.43 µM, respectively.

On to `Br.Cc1cccc(NC2=N[C@H](CCN)CN2)n1`, for which half-maximal inhibition in test [1] (IC50) required 8.51 µM. Also, the Ki was found to be 4.907 µM in test [2] and 39.6 µM in test [3].

In test [1], `Br.NCC[C@H]1CNC(Nc2cccc(C(F)(F)F)c2)=N1` had an IC50 of 1.31 µM. Moreover, the Ki in test [2] turned out to be 3.007 µM; in test [3], 12.7 µM.

Compound `Br.NCC[C@H]1CNC(Cc2ccccc2)=N1` came in with an IC50 in test [1] of 278 µM. Moreover, the figures for the Ki in test [2] and in test [3] were 23.32 µM and 59.4 µM, respectively.

Consider `Clc1cccc(Cl)c1NC1=NCCN1` [CLONIDINE], for which the affinity in test [3] corresponds to a Ki of 0.364 µM.

With `Br.NCC[C@H]1CNC(NCc2ccccc2)=N1`, the IC50 in test [1] was determined as 101 µM. Moreover, the Ki in test [2] stood at 5.539 µM; in test [3] it was 7.5 µM.

For the compound `Br.COc1ccc(NC2=N[C@@H](CCN)CN2)cc1`, in test [1], the concentration for half-maximal inhibition (IC50) was 79.8 µM. In addition, the Ki in test [2] turned out to be 9.376 µM; in test [3], 24.9 µM.

For the compound `Cl.Cl.NCC[C@H]1CNC(NC(C2CC2)C2CC2)=N1`, the IC50 in test [1] is above 100 µM. Moreover, the figures for the Ki in test [2] and in test [3] were 5.727 µM and 28 µM, respectively.

`Br.NCC[C@H]1CNC(Nc2ccc(Br)cc2)=N1` had an IC50 in test [1] of 59.4 µM. The Ki is 25.8 µM in test [2] and 81.2 µM in test [3].

In test [1], `Br.Cc1cccc(NC2=N[C@@H](CCN)CN2)n1` showed an IC50 of 7.78 µM. The Ki in test [2] worked out at 0.445 µM; in test [3], 15.7 µM.

For the compound `Br.NCC[C@H]1CNC(Nc2ccccc2Br)=N1`, the midpoint of inhibition in test [1], the IC50, lay at 3.7 µM. Moreover, the Ki came to 1.553 µM in test [2] and 18.8 µM in test [3].

The compound `Br.NCC[C@H]1CNC(C2COc3ccccc3O2)=N1` (stereo partly drawn) came in with an IC50 in test [1] of 5.11 µM. Further, the Ki in test [2] turned out to be 24.02 µM; in test [3], 8.12 µM.

On to `Br.NCC[C@@H]1CNC(Nc2c(Cl)cccc2Cl)=N1`, for which, in test [1], the IC50 is 2.72 µM. Besides, the inhibitory constant (Ki) in test [2] stood at 4.315 µM; in test [3], 9.56 µM.

Take `Br.CCC1(C2=N[C@@H](CCN)CN2)Cc2ccccc2O1` (stereo partly drawn): the 50% inhibitory concentration (IC50) in test [1] was found to be 1.01 µM. The Ki in test [2] was found to be 20.35 µM; in test [3], 2.55 µM.
